Measured values reported in the NIST ThermoML archive (doi:10.1016/j.jct.2008.01.020).
Numbers after ± are expanded uncertainties.

Assay: mn = molality of the nth substance listed, in mol/kg
Conditions: 101 kPa, Liquid; for apparent molar heat capacity: Flow calorimetry

Nc1ncnc2c1ncn2[C@@H]1O[C@H](CO)[C@@H](O)[C@H]1O [β-adenosine] + O
mass density (288.15 K, m1 = 0.01329): 1000.4 ± 0.14 kg/m3 | mass density (288.15 K, m1 = 0.01395): 1000.47 ± 0.14 kg/m3 | mass density (288.15 K, m1 = 0.01492): 1000.56 ± 0.14 kg/m3 | mass density (288.15 K, m1 = 0.01614): 1000.68 ± 0.14 kg/m3 | mass density (288.15 K, m1 = 0.01712): 1000.77 ± 0.14 kg/m3 | mass density (288.15 K, m1 = 0.01799): 1000.86 ± 0.14 kg/m3 | mass density (288.15 K, m1 = 0.01882): 1000.94 ± 0.14 kg/m3 | mass density (288.15 K, m1 = 0.01892): 1000.95 ± 0.14 kg/m3 | mass density (288.15 K, m1 = 0.01942): 1001 ± 0.14 kg/m3 | apparent molar heat capacity (298.15 K, m1 = 0.01599): 483.2 ± 49 J/K/mol | apparent molar heat capacity (298.15 K, m1 = 0.01704): 488 ± 46 J/K/mol | apparent molar heat capacity (298.15 K, m1 = 0.01799): 487.4 ± 44 J/K/mol | apparent molar heat capacity (298.15 K, m1 = 0.01899): 491.7 ± 42 J/K/mol | apparent molar heat capacity (298.15 K, m1 = 0.01941): 486.7 ± 41 J/K/mol | apparent molar heat capacity (298.15 K, m1 = 0.01999): 489.8 ± 40 J/K/mol | apparent molar heat capacity (298.15 K, m1 = 0.02098): 488.4 ± 38 J/K/mol | apparent molar heat capacity (298.15 K, m1 = 0.02171): 489.9 ± 36 J/K/mol | apparent molar heat capacity (298.15 K, m1 = 0.02196): 487.5 ± 36 J/K/mol | mass density (298.15 K, m1 = 0.01501): 998.486 ± 0.14 kg/m3 | mass density (298.15 K, m1 = 0.01599): 998.58 ± 0.14 kg/m3 | mass density (298.15 K, m1 = 0.01704): 998.686 ± 0.14 kg/m3 | mass density (298.15 K, m1 = 0.01799): 998.767 ± 0.14 kg/m3 | mass density (298.15 K, m1 = 0.01899): 998.864 ± 0.14 kg/m3 | mass density (298.15 K, m1 = 0.01941): 998.902 ± 0.14 kg/m3 | mass density (298.15 K, m1 = 0.01999): 998.965 ± 0.14 kg/m3 | mass density (298.15 K, m1 = 0.02098): 999.055 ± 0.14 kg/m3 | mass density (298.15 K, m1 = 0.02171): 999.129 ± 0.14 kg/m3 | mass density (298.15 K, m1 = 0.02196): 999.151 ± 0.14 kg/m3 | mass density (303.15 K, m1 = 0.01329): 996.913 ± 0.14 kg/m3 | mass density (303.15 K, m1 = 0.01395): 996.975 ± 0.14 kg/m3 | mass density (303.15 K, m1 = 0.01501): 997.076 ± 0.14 kg/m3 | mass density (303.15 K, m1 = 0.01546): 997.117 ± 0.14 kg/m3 | mass density (303.15 K, m1 = 0.01614): 997.185 ± 0.14 kg/m3 | mass density (303.15 K, m1 = 0.01712): 997.271 ± 0.14 kg/m3 | mass density (303.15 K, m1 = 0.01799): 997.354 ± 0.14 kg/m3 | mass density (303.15 K, m1 = 0.01892): 997.445 ± 0.14 kg/m3 | mass density (303.15 K, m1 = 0.01903): 997.455 ± 0.14 kg/m3 | mass density (303.15 K, m1 = 0.01942): 997.495 ± 0.14 kg/m3 | mass density (313.15 K, m1 = 0.01297): 993.43 ± 0.15 kg/m3 | mass density (313.15 K, m1 = 0.01346): 993.47 ± 0.15 kg/m3 | mass density (313.15 K, m1 = 0.01395): 993.522 ± 0.15 kg/m3 | mass density (313.15 K, m1 = 0.01501): 993.616 ± 0.15 kg/m3 | mass density (313.15 K, m1 = 0.01598): 993.707 ± 0.15 kg/m3 | mass density (313.15 K, m1 = 0.017): 993.802 ± 0.15 kg/m3 | mass density (313.15 K, m1 = 0.01799): 993.896 ± 0.15 kg/m3 | mass density (313.15 K, m1 = 0.01882): 993.976 ± 0.15 kg/m3 | mass density (313.15 K, m1 = 0.01997): 994.077 ± 0.15 kg/m3
